# According to patent US20070134261A1, “Effectors of innate immunity” (priority 2001, published 2007):
# Starred links: 1 amine or outer side, 2 acyl side, 3 side chain; linkers in the order of their positions; H or OH if unused. Positions of bridges follow the written chain, without caps; N, C: chain ends. Non-standard residues stand in square brackets, D forms with d. Residues, ends and D or L forms follow the SMILES beside them. Chains are numbered I, II in the order given. Actinocin(9to1) = Cc1c2oc3c(C)ccc(C(=O)[*:1])c3nc-2c(C(=O)[*:2])c(N)c1=O; NMeV = CN[C@H](C(=O)O)C(C)C; Sar = CNCC(=O)O
# Key:
# [1] = tested on: THP-1 cells; assay: Quantitative real-time PCR (qPCR) in THP-1 cells; type: cell-based, human; settings: 4 μg/ml, within 1 hour of treatment (data not shown)
# Description: Quantitative real-time PCR (qPCR)—Differential gene expression identified by microarray analysis was validated using quantitative real-time PCR (qPCR) using SuperScriptTM III Platinum® Two-Step qRT-PCR Kit with SYBR® Green (Invitrogen Life Technologies), as per the manufacturer's instructions, in the ABI PRISMS® 7000 sequence detection system (Applied Biosystems, Foster city, Calif., USA). Briefly, 1 μg of total RNA was reverse transcribed in a 20 μl reaction volume for 50 min at 42° C., the reaction was terminated by incubating for 5 min at 85° C. and then digested for 30 min at 37° C. with RNAse H. The PCR reaction was carried out in a 12.5 μl reaction volume containing 2.5 μl of 1/10 diluted cDNA template. A melting curve was performed to ensure that any product detected was specific to the desired amplicon. Fold changes were calculated after normalization to endogenous GAPDH and using the comparative Ct method (Pfaffl MW. A new mathematical model for relative quantification in real-time RT-PCR. Nucleic Acids Res 2001; 29:No. 9 e45).
# [2] = tested on: Human monocytic cells, THP-1; assay: LPS-induced TNFα secretion by THP-1 cells (ELISA)
# [3] = tested on: human bronchial epithelial cells (HBE); assay: LDH release assay (Cytotoxicity Detection Kit); type: cell-based; settings: 100 μg/ml, 24 hours; no peptide control 1.0 ± 0.05
# In short: (§1)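 Both read-outs were colorimetric at OD490 on HBE cells after 24 h with 100 μg of each peptide. The WST-1 assay reported viability through mitochondrial dehydrogenase cleavage of the tetrazolium salt. The LDH assay tested the removed supernatant for enzyme leaked from membrane-damaged cells.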
# [4] = tested on: HBE cells; assay: WST-1 assay (cell viability); type: cell-based, human
# In short: as §1
# [5] = type: cell-based; settings: overnight, 96-well plate
# [6] = tested on: HBE cells; settings: 50 μg/ml, 4 h
# [7] = tested on: THP-1 cells
# [8] = tested on: RAW 264.7 mouse macrophage cells; type: cell-based; settings: 20 μg/ml; 1 μg/ml AraLAM
# Description: The ability of compounds to neutralize the stimulation of immune cells by both Gram-negative and Gram-positive bacterial products was tested. Bacterial products stimulate cells of the immune system to produce inflammatory cytokines and when unchecked this can lead to sepsis. Initial experiments utilized the murine macrophage cell line RAW 264.7, which was obtained from the American Type Culture Collection, (Manassas, Va.), the human epithelial cell line, A549, and primary macrophages derived from the bone marrow of BALB/c mice (Charles River Laboratories, Wilmington, Mass.). The cells from mouse bone marrow were cultured in 150-mm plates in Dulbecco's modified Eagle medium (DMEM; Life Technologies, Burlington, ON) supplemented with 20% FBS (Sigma Chemical Co, St. Louis, Mo.) and 20% L cell-conditioned medium as a source of M-CSF. Once macrophages were 60-80% confluent, they were deprived of L cell-conditioned medium for 14-16 h to render the cells quiescent and then were subjected to treatments with 100 ng/ml LPS or 100 ng/ml LPS+20 μg/ml peptide for 24 hours. The release of cytokines into the culture supernatant was determined by ELISA (R&D Systems, Minneapolis, Minn.). […] The samples were centrifuged for 5 min at 2000×g, the plasma was collected and then stored at −20° C. until being analyzed for IL-8 by ELISA (R&D Systems). […] Survival was monitored for 48 hours post injection.
# [9] = tested on: NFκB subunits; assay: Translocation of NFκB subunits in nuclear extracts of THP-1 cells (Western blot, ELISA); type: cell-based, human; settings: 60 min
# [10] = tested on: Human Jurkat T cells; assay: SDF-1 induced migration of human Jurkat T cells (Transwell); type: cell-based; settings: SDF-1 + peptide (50 μg/ml), positive control 100%
# Description: SDF-1, a C-X-C chemokine is a natural ligand for HIV-1 coreceptor-CXCR4. The chemokine receptors CXCR4 and CCR5 are considered to be potential targets for the inhibition of HIV-1 replication. […] The migration assays were performed as follows. Human Jurkat T cells were resuspended to 5×10^6/ml in chemotaxis medium (RPMI 1640/10 mM Hepes/0.5% BSA). Migration assays were performed in 24 well plates using […] polycarbonate Transwell inserts (Costar). Briefly, peptide or controls were diluted in chemotaxis medium and placed in the lower chamber while 0.1 ml cells (5×10^6/ml) was added to the upper chamber. After 3 hr at 37° C., the number of cells that had migrated into the lower chamber was determined using flow cytometry. The medium from the lower chamber was passed through a FACscan for 30 seconds, gating on forward and side scatter to exclude cell debris. The number of live cells was compared to a “100% migration control” in which 5×10^5/ml cells had been pipetted directly into the lower chamber and then counted on the FACscan for 30 seconds.
molecule,measurement,setting,value
"Cc1c2oc3c(C)ccc(C(=O)N[C@@H]4C(=O)N[C@H](C(C)C)C(=O)N5CCC[C@H]5C(=O)N(C)CC(=O)N(C)[C@@H](C(C)C)C(=O)O[C@@H]4C)c3nc-2c(C(=O)N[C@@H]2C(=O)N[C@H](C(C)C)C(=O)N3CCC[C@H]3C(=O)N(C)CC(=O)N(C)[C@@H](C(C)C)C(=O)O[C@@H]2C)c(N)c1=O [Actinomycin D] (I: T[dV]P[Sar][NMeV] / II: T[dV]P[Sar][NMeV]; ester I:1-I:C, II:1-II:C; linker I:N-II:N via Actinocin(9to1))",inhibition of LPS-induced transcription of TNFα and TNFAIP2 genes,[1],more than 96%
same,reduction of TNFα release,"[2]; 4 μg/ml, LPS-stimulated THP-1 cells",97.6%
CC[C@@]1([C@@H]2O[C@@H]([C@H]3O[C@@](O)(CO)[C@H](C)C[C@@H]3C)C[C@@H]2C)CC[C@H]([C@]2(C)CC[C@]3(C[C@H](O)[C@@H](C)[C@@H]([C@@H](C)[C@@H](OC)[C@H](C)C(=O)O)O3)O2)O1 [Monensin],TNFα within cells (cytoplasmic extracts),[2]; LPS stimulation for 60 min,accumulation of TNFα within cells
"CC[C@H](C)[C@H](NC(=O)[C@H](CCCCN)NC(=O)[C@H](CCC(=O)O)NC(=O)[C@H](CCCCN)NC(=O)[C@H](CO)NC(=O)[C@H](CCCCN)NC(=O)[C@H](CCCNC(=N)N)NC(=O)[C@H](Cc1ccccc1)NC(=O)[C@H](Cc1ccccc1)NC(=O)[C@H](CC(=O)O)NC(=O)CNC(=O)[C@H](CC(C)C)NC(=O)[C@@H](N)CC(C)C)C(=O)NCC(=O)N[C@@H](CCCCN)C(=O)N[C@@H](CCC(=O)O)C(=O)N[C@@H](Cc1ccccc1)C(=O)N[C@@H](CCCCN)C(=O)N[C@@H](CCCNC(=N)N)C(=O)N[C@H](C(=O)N[C@H](C(=O)N[C@@H](CCC(N)=O)C(=O)N[C@@H](CCCNC(=N)N)C(=O)N[C@H](C(=O)N[C@@H](CCCCN)C(=O)N[C@@H](CC(=O)O)C(=O)N[C@@H](Cc1ccccc1)C(=O)N[C@@H](CC(C)C)C(=O)N[C@@H](CCCNC(=N)N)C(=O)N[C@@H](CC(N)=O)C(=O)N[C@@H](CC(C)C)C(=O)N[C@H](C(=O)N1CCC[C@H]1C(=O)N[C@@H](CCCNC(=N)N)C(=O)N[C@H](C(=O)N[C@@H](CCC(=O)O)C(=O)N[C@@H](CO)C(=O)O)[C@@H](C)O)C(C)C)[C@@H](C)CC)C(C)C)[C@@H](C)CC [SEQ ID NO: 1, reference compound]",LDH Release (OD490 nm),[3],1.18 ± 0.05 OD490 nm
same,OD490 nm (WST-1 cell viability),[4],1.62 ± 0.34 OD490 nm
same,"MIC, C. rhod.",[5]; Citobacter rhodensis,8 µg/mL
same,"MIC, EHEC",[5]; Enterohaemorrhagic E. coli,4 µg/mL
same,"MIC, E. coli",[5]; Escherichia coli,32 µg/mL
same,"MIC, P. aerug.",[5]; Pseudomonas aeruginosa,96 µg/mL
same,"MIC, S. typhim.",[5]; Salmonella enteritidis ssp. typhimurium,64 µg/mL
same,"Ratio of SEQ ID NO: 1-treated:control, L41559 6-pyruvoyl-tetrahydropterin synthase/dimerization cofactor of hepatocyte nuclear factor 1 alpha",[6],0.20
same,"Ratio of SEQ ID NO: 1-treated:control, NM_000120 epoxide hydrolase 1, microsomal",[6],0.22
same,cytotoxicity,[7],not cytotoxic
Polymyxin B,Inhibition of TNF-α,[8],15 ± 2%
same,LDH Release (OD490 nm),[3],1.21 ± 0.03 OD490 nm
same,OD490 nm (WST-1 cell viability),[4],1.30 ± 0.13 OD490 nm
same,inhibition of LPS-induced p50 translocation,[9],82±5%
same,inhibition of LPS-induced p65 translocation,[9],80±90%
SEQ 1D 1 (LLGDFFRKSKEKIGKEFKRIVQRIKDFLRNLVPRTES),Migration (%),[10]; Experiment 1,0%
same,Migration (%),[10]; Experiment 2,0%
